Test results taken from patent US20090298838A1, “Method for Determination of Effective Dose of Methotrexate” (StaGen Co., Ltd., priority 2005, published 2009).
Marks after values point to notes of the source that are not given here.

Legend:
[1] = test system: patients suffering from the rheumatoid arthritis; conditions: A/A genotype (68 individuals) versus A/C and C/C (31 individuals); administration for at least 3 months; cited from earlier work
[2] = test system: patients suffering from rheumatoid arthritis; experiment: Relationship between genotype of A1298C polymorphism in the MTHFR gene and dose of methotrexate 12 months after start of administration (157 patients); format: in vivo, human; conditions: for Risk ratio of high dose: high dose = more than 6 mg/week at 12 months
Description: Target patients were 157 patients (M/F=24/133) suffering from rheumatoid arthritis who were attending to Institute of Rheumatology Tokyo Women's Medical University Hospital. All of those patients were different from patients examined in Non-Patent Document 3.
Examinations were performed on genotypes of A1298C in the MTHFR gene in these 157 patients suffering from rheumatoid arthritis and doses of methotrexate to the patients 12 months after a start of administration.
Genomic DNA was extracted from leukocytes in peripheral blood of each patient suffering from rheumatoid arthritis. From the genomic DNA, a DNA region including A1298C in the MTHFR gene was amplified by PCR. The primers shown in SEQ ID NO: 1 and SEQ ID NO: 2 in Sequence Listing were used for the amplification.
The DNA amplification reaction was performed in a system of a total volume of 50 μl, which contains 5 μl of 10×PCR Buffer (Applied Biosystem, Japan), 0.5 μl (=2.5 U) of AmpliTaq Gold (Applied Biosystem, Japan), 5.01 of 8 mM dNTP (200 μM of each dNTP), and 1 μl of each 10 pmole primer (0.2 μM of each primer). Conditions of the PCR included: totally 34 cycles of denaturing at 95° C. for 10 minutes, of reactions each at 95° C. for 30 seconds, at 65° C. for 30 seconds, and at 72° C. for 60 seconds; and final extension at 72° C. for 7 minutes.
The products amplified by the PCR were cut by the restriction enzyme Fnu4I and subjected to electrophoresis to examine whether they were cut or not, to thereby determine the genotypes (A/A, A/C, C/C) in each patient.
Alleles and genotypes in group were compared by using Fisher's exact test for statistic analysis and Chi-square test, and Excel was used as a statistical software.
In the present Example, a dose of more than 6 mg/week 12 months after the start of the administration of the methotrexate was defined as a high dose, and otherwise defined as a low dose. Individuals were classified into A/A, A/C, and C/C based on the genotypes of A1298C polymorphism in the MTHFR and summarized to a relationship between the genotypes and the high dose. As shown in FIG. 1 and Table 2, a ratio of the high dose of the methotrexate was high in the order of A/A>A/C>C/C in the genotypes. […] A possibility that patients having the A/A genotype are required to have a high dose of the methotrexate is 49%. Compared with this, possibilities of patients having the A/C genotype and patients having the C/C genotype were 28% and 13%, respectively (Table 2 and FIG. 1). There were a difference of 1.7 (risk ratio, P<0.05) between A/A and A/C, and a difference of 3.8 (risk ratio, P<0.05) between A/A and C/C.
Table 3 and FIG. 2 show a relationship between the A/A genotype of A1298C polymorphism in the MTHFR and a dose and a relationship between the other genotypes (A/C and C/C) and a dose in all the subjects of the patients suffering from the rheumatoid arthritis. In the present reference example, the dose of more than 6 mg/week 12 months after the start of the administration of the methotrexate was defined as a high dose, and otherwise defined as a low dose. Genotypes of A1298C polymorphism in the MTHFR were classified into A/A and other genotype and summarized to a relationship between the genotypes and the high dose.

Structure (SMILES): CN(Cc1cnc2nc(N)nc(N)c2n1)c1ccc(C(=O)N[C@@H](CCC(=O)O)C(=O)O)cc1 [methotrexate]
- Proportion ratio of patients administered more than 5 mg/week [1]: 1.78
- Ratio of high dose ([2]; A/A genotype, final dose more than 6 mg/week 12 months after start of administration): 0.485*
- Ratio of high dose ([2]; A/A genotype, final dose more than 6 mg/week 12 months after start of administration, listed as MTX): 0.485*,**
- Possibility that patients are required to have a high dose ([2]; A/A genotype, more than 6 mg/week at 12 months): 49%
- Risk ratio of high dose ([2]; A/A versus A/C genotype): 1.7
- Risk ratio of high dose ([2]; A/A versus C/C genotype): 3.8
- Ratio of high dose ([2]; A/C + C/C genotypes, dose more than 6 mg/week 12 months after start of administration): 0.259}
- Ratio of high dose ([2]; A/C genotype, final dose more than 6 mg/week 12 months after start of administration): 0.283*
- Possibility that patients are required to have a high dose ([2]; A/C genotype, more than 6 mg/week at 12 months): 28%
- Ratio of high dose ([2]; C/C genotype, final dose more than 6 mg/week 12 months after start of administration): 0.125**
- Possibility that patients are required to have a high dose ([2]; C/C genotype, more than 6 mg/week at 12 months): 13%
- Ratio of high dose ([2]; Total, all genotypes (157 persons), final dose more than 6 mg/week 12 months after start of administration): 0.408
- Individuals classified to a high dose ([2]; either A/C or C/C genotype, more than 6 mg/week at 12 months): 26%
